What is called Ki is a measure of affinity in units of concentration, obtained from inhibition or displacement. The IC50 is the midpoint of a concentration-inhibition curve. Higher therefore signals a need for much substance.

“Also recorded” adds a separate entry of the source.

The target in test [1] is T1, human src SH2 domain (Homo sapiens, UniProt P12931).
T1 construct: made in house; host or cells: E. coli AR120
The test can be described thus: ELISA-based SH2 domain / pY peptide binding assay, src SH2 domain. To be noted: for Ki: Ki calculated from IC50 with the expanded equation; for IC50: inhibition of binding of 0.1 uM biotinylated pY peptide to SH2 domain fusion protein. The protocol:
(§1) The inhibitory activity of compounds at the different human SH2 domains was determined in vitro using SH2 domains expressed as fusion proteins in E. coli. The SH2 domains used herein were the human forms of the src SH2 domain, Grb2 SH2 domain, lck SH2 domain, fyn SH2 domain, SH-PTP2 SH2 domain, p85 SH2 domain and hcp SH2 domain.
The fusion proteins containing the src, lck and hcp SH2 domains were expressed as the general sequence: DET1-DET2-spacer-ek-SH2, where DET1, DET2, spacer, ek and SH2 are as described below. DET1 ("defined epitope tag 1") (SEQ ID NO: 1) is an 11 amino acid sequence found in the Human Immunodeficiency Virus Type 1 (HIV-1) envelope protein gp120 (or gp160). Monoclonal antibodies to various epitopes of HIV-1 gp120 (or gp 160) are known in the art, see, for example U.S. Patent 5,166,050. One preferred example is monoclonal antibody 178.1 (see, e.g., Thiriart et al., J. Immunol., 143:1832-1836 (1989)), which was prepared by immunization of mice with a yeast-expressed HIV-1 gp160 molecule from strain BH10 (Ratner et al., Nature, 313:277-284 (1985)). This tag was used for detection of expression (by Western blot), for purification of the protein (by affinity chromatography), and for configuring assays in which the fusion protein was captured or immobilized using the 178.1 antibody. DET2 is a hexa-histidine sequence tag (SEQ ID NO: 2) which binds to nickel-containing resins and was used for purification purposes. Spacer (SEQ ID NO: 3) was utilized to design a BamH1 restriction site at the indicated position of the construct. The term -ek-refers to a recognition sequence (SEQ ID NO: 4) for the enterokinase protease which provides for the optional removal of the tags from the SH2 domain, thus producing an SH2 domain that contains no extraneous amino acids. SH2 domains which contain no extraneous amino acids are preferable to tagged protein for crystallography studies. SH2 refers to the SH2 domains of different proteins.
Procedure 2: Cloning, expression and purification of human src SH2 domain containing tags and an enterokinase proteolytic cleavage site (DET1-DET2-spacer-ek-src SH2).
A DNA sequence encoding protein ek-src SH2 was PCR amplified from a cDNA clone containing the human src gene (c-src SH2 DNA sequence identical to that described in Takeya,T. and Hanafusa, H, 1983 Cell 32:881-890) using the following primers: [formula]
The PCR product was digested with BamHI and XbaI, followed by isolation of the digested fragment on an agarose gel. The fragment was ligated into BamHI-XbaI-digested expression vector containing the tagged chicken src gene DET1-DET2-spacer-SH2 described in Procedure 1 above. In that vector, the BamHI site is located between the coding regions for DET2 and SH2, and the XbaI site is located after the 3' end of the SH2 coding region. The ligation reaction was used to transform E. coli MM294cI^+. The construct DET1-DET2-spacer-ek-src SH2 was confirmed by DNA sequencing (SEQ ID NO: 5) and induced in E. coli strain AR120 as described in Procedure 1 above. A Coomassie-Blue-stained, Western-blot-positive induced protein band with an apparent molecular weight of 16,000 was observed after nalidixic acid induction.
Cells were lysed at neutral pH by sonication in the presance of lysozyme. After centrifugation, the soluble extract was chromatographed on a Ni^++NTA column. After washing the column with equilibration buffer (Tris buffer pH 8 containing 0.5 M Nacl) and the same buffer containing 15 mM imidazole, the protein was eluted in highly purified form with 25 mM imidazole in equilibration buffer.
The binding assays for the SH2 domains and pY peptides were performed in an ELISA-based 96 well plate assay. […]

In test [2] the test system is B6D2F1 female mice. The test can be described thus: murine reticulocyte assay (Hayakawa assay). Type of test: in vivo. To be noted: oral gavage, once a day for 7 days. How it is done:
The efficacy of hcp SH2 domain antagonist to enhance erythropoiesis is related to their ability to increase reticulocyte production in the murine reticulocyte assay (Hayakawa T, et al. Biologicals 20; 253 (1992) and Hayakawa T, et al. Biologicals 20; 243 (1992), (collectively hereinafter 'Hayakawa')).
L-3,5-Dibromo-3'-(6-oxo-3(1H)-pyridazinylmethyl)-thyronine (Compound 2) was tested for its in vivo potency to increase reticulocyte production in the Hayakawa assay.
To perform the experiment a total of 12 B6D2F1 female mice were used. The animals were administered Compound 2 (the compound was dissolved in water, pH 11, and administered by oral gavage) once a day for 7 days. At the end of the treatment period blood was collected from the animals and reticulocyte count was determined by known methods. (Hayakawa)

In test [3] the test system is human hcp SH2 domain. The test can be described thus: ELISA-based SH2 domain / pY peptide binding assay, hcp SH2 domain. The note with it: hcp SH2 domain versus src, lck, fyn, SH-PTP2, p85, Grb2 SH2 domains. The protocol:
as §1
The fusion proteins containing the src, lck and hcp SH2 domains were expressed as the general sequence: DET1-DET2-spacer-ek-SH2, where DET1, DET2, spacer, ek and SH2 are as described below. DET1 ("defined epitope tag 1") (SEQ ID NO: 1) is an 11 amino acid sequence found in the Human Immunodeficiency Virus Type 1 (HIV-1) envelope protein gp120 (or gp160). Monoclonal antibodies to various epitopes of HIV-1 gp120 (or gp 160) are known in the art, see, for example U.S. Patent 5,166,050. One preferred example is monoclonal antibody 178.1 (see, e.g., Thiriart et al., J. Immunol., 143:1832-1836 (1989)), which was prepared by immunization of mice with a yeast-expressed HIV-1 gp160 molecule from strain BH10 (Ratner et al., Nature, 313:277-284 (1985)). This tag was used for detection of expression (by Western blot), for purification of the protein (by affinity chromatography), and for configuring assays in which the fusion protein was captured or immobilized using the 178.1 antibody. […]

As for `Cc1nnc(SCC2=C(C(=O)O)N3C(=O)[C@@H](NC(=O)C(N)c4ccc(C(=O)O)cc4)[C@H]3SC2)s1` (stereo partly drawn) [Compound 1, 7-[D,L-α-Amino-α-(4-carboxyphenyl)acetamido]-3-[2-(5-methyl-1,3,4-thiadiazolyl)thiomethyl]Δ^3-cephem-4-carboxylic Acid], in test [1], the Ki was 7 µM and the IC50 turned out to be 6 µM.

As to “4-acetamido-benzamido-trans-4-methyl-cyclohexyl-N-1-(amino-R-2-(methoxy methyl)-pyrrolidine) carboxamide [Compound 8]”, in test [1], the Ki is 12 µM and the IC50 worked out at 16 µM.

For `Cc1ccc(C(=O)c2ccc(C(=O)c3ccc(CC=O)cc3)cc2)cc1` [Compound 4, 4-[4-(4-Methylbenzoyl)benzoyl]phenylacetaldehyde], in test [1], the Ki was 40 µM and the IC50 is 40 µM.

Take `N[C@@H](Cc1cc(Br)c(Oc2ccc(O)c(Cc3ccc(=O)[nH]n3)c2)c(Br)c1)C(=O)O` [Compound 2, L-3,5-Dibromo-3'-(6-oxo-3(1H)-pyridazinylmethyl)-thyronine]: the Reticulocytes in test [2] (200 mg/kg/day) is 321.0 ± 46.3 10^9/L; in test [2] (400 mg/kg/day) it was 310.8 ± 24.8 10^9/L; in test [2] (800 mg/kg/day) it was 375.2 ± 51.6 10^9/L.

Take `CCCNC(=O)[C@H]1CC[C@H](CNC(=O)/C=C/c2ccc(C=O)cc2)CC1` [Compound 9, 4-formyl-E-cinnamido-trans-4-methyl-cyclohexyl-N-(propyl) carboxamide]: in test [1], the Ki is 55 µM and the IC50 came to 131 µM.

Consider `Cc1nc2sc3c(c2c2[nH][nH]c(=O)c12)CCC1(C3)OCCO1` [Compound 3, 8,8-Ethylenedioxy-2,3,7,8,9,10-hexahydro-4-methyl-1H-benzo[b]thieno[2,3-b]pyrazolo[3,4-d]pyridin-3-one], for which, in test [1], the Ki was 6 µM and the IC50 came out at 16.1 µM.

Turning to `Cc1nc2sc3c(c2c2c1c(=O)[nH]n2C)CCC1(C3)OCCO1` [Compound 5, 1,4-Dimethyl-8,8-ethylenedioxy-2,3,7,8,9,10-hexahydro-1H-benzo[b]thieno[2,3-b]pyrazolo[3,4-d]pyridin-3-one], in test [1], the Ki is 28 µM and the IC50 turned out to be 63 µM. The “binding affinities/inhibitory concentrations at the hcp SH2 domain than at other SH2 domains” value in test [3] is reported as “greater than fifty-fold higher; also recorded: greater than one hundred-fold higher”.

The values are drawn from patent EP0728482A2, “Use of hcp specific compounds to enhance erythropoiesis” (SMITHKLINE BEECHAM CORPORATION, priority 1995, dated 1996).
